Values after ≈ are worked out from the molar mass of the structure shown.
Tests used:
[1] = Absorption and excretion of 14C-labelled compounds; type: in vivo, rats; conditions: rats, 14C-labelled
Procedure: The carbon atom at the 2-position of the chloroethyl group (i.e. ClCH2 CH2 -) of 6DCNU and 6MCαG was labelled with radioactive ^14 C, and the absorption and excretion of these compounds were tested using rats.

[2] = Solubility in water at 25° C.; type: physicochemical; conditions: amount soluble in 1 ml water at 25° C.
[3] = tested on: Mycobacterium smegmatis ATCC 607; test: Antibacterial activity, broth-dilution method; type: cell-based; conditions: Mycolicibacterium smegmatis, ATCC607
Description: (§1) Using 6DCNU and 6MCαG, minimum inhibiting concentrations (referred to as "MIC") for various kinds of bacteria were estimated by means of the broth-dilution method.

[4] = tested on: Bacillus subtilis ATCC 6633; test: Antibacterial activity, broth-dilution method; type: cell-based; conditions: ATCC6633
Description: as §1

Shigella sonnei = test: Antibacterial activity, broth-dilution method; type: cell-based
Description: as §1

[5] = tested on: Escherichia coli NIHJ JC-2; test: Antibacterial activity, broth-dilution method; type: cell-based; conditions: NIHJJC2
Description: as §1

[6] = tested on: Streptococcus faecalis AHU 1085; test: Antibacterial activity, broth-dilution method; type: cell-based; conditions: Enterococcus faecalis, AHU1085
Description: as §1

[7] = tested on: Proteus vulgaris AHU 1469; test: Antibacterial activity, broth-dilution method; type: cell-based; conditions: AHU1469
Description: as §1

[8] = tested on: Pseudomonas aeruginosa IFO 3080; test: Antibacterial activity, broth-dilution method; type: cell-based; conditions: IFO3080
Description: as §1

Sarcina lutea ATCC 9341 = test: Antibacterial activity, broth-dilution method; type: cell-based; conditions: Micrococcus luteus, ATCC9341
Description: as §1

[9] = tested on: Staphylococcus aureus FDA 209P JC-1; test: Antibacterial activity, broth-dilution method; type: cell-based; conditions: FDA209P
Description: as §1

[10] = tested on: Klebsiella pneumoniae IFM 3008; test: Antibacterial activity, broth-dilution method; type: cell-based; conditions: IFM3008
Description: as §1

Acute toxicity (LD50) = type: in vivo, male Wister rats; conditions: rat, in vivo, after 1 week
Procedure: Test compounds were dissolved in physiological saline solution just before their dosage and administered to male Wister rats, intraperitoneally, intravenously and orally. After 1 week, the LD50 of each compound was calculated from the mortality of the test animals by the Lichfield-Wilcoxon Method.
i.v.: intravenous administration

[11] = Diabetogenic activity (blood glucose concentration after intravenous administration); type: in vivo, male Wister rats
Procedure, shortened: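 Starved male Wistar rats (240–260 g) given 40-96 mg/kg test compound intravenously, freshly dissolved in physiological saline. Blood glucose then measured by the glucose oxidase method.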

leukemia L-1210 = test: Antitumor activity against leukemia L-1210 implanted in BDF1 mice (ILS, 60 days survivors); type: in vivo
Procedure, shortened: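 BDF1 mice implanted with 10^6 L-1210 cells; compounds in physiological saline given 24 h later i.p. or p.o., as a single dose or daily for 5 days. ILS is the percentage of mean survival time over control; survivors at 60 days counted out of six animals.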

CO[C@H]1O[C@H](CNC(=O)N(CCCl)N=O)[C@@H](O)[C@H](O)[C@H]1O [Example 6MCαG, 1-(2-chloroethyl)-3-(methyl α-D-glucopyranos-6-yl)-1-nitrosourea]
absorption, in words [1]: absorbed well
excretion rate, intravenous versus oral administration, in words [1]: almost the same excretion rates
main route of excretion, in words [1]: excreted mainly in the urine
solubility [2]: 900 mg/mL (≈ 2750 mM)
MIC [3]: > 200 µg/mL
MIC [4]: > 200 µg/mL
MIC (Shigella sonnei): > 200 µg/mL
MIC [5]: > 200 µg/mL
MIC [6]: > 200 µg/mL
MIC [7]: > 200 µg/mL
MIC [8]: > 200 µg/mL
MIC (Sarcina lutea ATCC 9341): > 200 µg/mL
MIC [9]: > 200 µg/mL
MIC [10]: > 200 µg/mL
LD50 at 168 h (Acute toxicity (LD50); ip): 42 mg/kg
LD50 at 168 h (Acute toxicity (LD50); iv): 42 mg/kg
LD50 at 168 h (Acute toxicity (LD50); po): 50 mg/kg
Blood Glucose Concentration ([11]; 40 mg/kg i.v., 0 hr after treatment): 72.0 mg/dL
Blood Glucose Concentration ([11]; 40 mg/kg i.v., 2 hr after treatment): 75.9 mg/dL
Blood Glucose Concentration ([11]; 40 mg/kg i.v., 4 hr after treatment): 79.3 mg/dL
Blood Glucose Concentration ([11]; 40 mg/kg i.v., 7 hr after treatment): 71.7 mg/dL
Blood Glucose Concentration ([11]; 40 mg/kg i.v., 10 hr after treatment): 79.4 mg/dL
Blood Glucose Concentration ([11]; 40 mg/kg i.v., 24 hr after treatment): 73.1 mg/dL
Blood Glucose Concentration ([11]; 40 mg/kg i.v., 48 hr after treatment): 75.3 mg/dL
Blood Glucose Concentration ([11]; 60 mg/kg i.v., 0 hr after treatment): 71.8 mg/dL
Blood Glucose Concentration ([11]; 60 mg/kg i.v., 2 hr after treatment): 72.5 mg/dL
Blood Glucose Concentration ([11]; 60 mg/kg i.v., 4 hr after treatment): 69.8 mg/dL
Blood Glucose Concentration ([11]; 60 mg/kg i.v., 7 hr after treatment): 68.7 mg/dL
Blood Glucose Concentration ([11]; 60 mg/kg i.v., 10 hr after treatment): 67.7 mg/dL
Blood Glucose Concentration ([11]; 60 mg/kg i.v., 24 hr after treatment): 68.4 mg/dL
Blood Glucose Concentration ([11]; 60 mg/kg i.v., 48 hr after treatment): 70.8 mg/dL
Blood Glucose Concentration ([11]; 80 mg/kg i.v., 0 hr after treatment): 73.7 mg/dL
Blood Glucose Concentration ([11]; 80 mg/kg i.v., 2 hr after treatment): 82.0 mg/dL
Blood Glucose Concentration ([11]; 80 mg/kg i.v., 4 hr after treatment): 78.3 mg/dL
Blood Glucose Concentration ([11]; 80 mg/kg i.v., 7 hr after treatment): 77.8 mg/dL
Blood Glucose Concentration ([11]; 80 mg/kg i.v., 10 hr after treatment): 73.6 mg/dL
Blood Glucose Concentration ([11]; 80 mg/kg i.v., 24 hr after treatment): 76.3 mg/dL
Blood Glucose Concentration ([11]; 80 mg/kg i.v., 48 hr after treatment): 83.1 mg/dL
blood glucose concentrations versus control, in words ([11]; i.v., rats): substantially the same blood glucose concentrations as that in the control
ILS (leukemia L-1210; 2.3 mg/kg/day, i.p. D1~5): > 207%
Survivors (60 days) (leukemia L-1210; 2.3 mg/kg/day, i.p. D1~5): 1/6
ILS (leukemia L-1210; 3.2 mg/kg/day, i.p. D1~5): > 521%
Survivors (60 days) (leukemia L-1210; 3.2 mg/kg/day, i.p. D1~5): 4/6
ILS (leukemia L-1210; 3.2 mg/kg/day, p.o. D1~5): 38%
ILS (leukemia L-1210; 4.5 mg/kg/day, i.p. D1~5): > 607%
Survivors (60 days) (leukemia L-1210; 4.5 mg/kg/day, i.p. D1~5): 5/6
ILS (leukemia L-1210; 6.3 mg/kg/day, i.p. D1): > 241%
Survivors (60 days) (leukemia L-1210; 6.3 mg/kg/day, i.p. D1): 3/6
ILS (leukemia L-1210; 6.3 mg/kg/day, i.p. D1~5): > 722%
Survivors (60 days) (leukemia L-1210; 6.3 mg/kg/day, i.p. D1~5): 6/6
ILS (leukemia L-1210; 6.3 mg/kg/day, p.o. D1~5): > 397%
Survivors (60 days) (leukemia L-1210; 6.3 mg/kg/day, p.o. D1~5): 3/6
ILS (leukemia L-1210; 9.0 mg/kg/day, i.p. D1): > 604%
Survivors (60 days) (leukemia L-1210; 9.0 mg/kg/day, i.p. D1): 5/6
ILS (leukemia L-1210; 9.0 mg/kg/day, i.p. D1~5): > 700%
Survivors (60 days) (leukemia L-1210; 9.0 mg/kg/day, i.p. D1~5): 6/6
ILS (leukemia L-1210; 9.0 mg/kg/day, p.o. D1~5): > 417%
Survivors (60 days) (leukemia L-1210; 9.0 mg/kg/day, p.o. D1~5): 3/6
ILS (leukemia L-1210; 12.5 mg/kg/day, i.p. D1): > 619%
Survivors (60 days) (leukemia L-1210; 12.5 mg/kg/day, i.p. D1): 6/6
ILS (leukemia L-1210; 12.5 mg/kg/day, i.p. D1~5): > 722%
Survivors (60 days) (leukemia L-1210; 12.5 mg/kg/day, i.p. D1~5): 6/6
ILS (leukemia L-1210; 12.5 mg/kg/day, p.o. D1~5): > 700%
Survivors (60 days) (leukemia L-1210; 12.5 mg/kg/day, p.o. D1~5): 6/6
ILS (leukemia L-1210; 18.0 mg/kg/day, i.p. D1): > 632%
Survivors (60 days) (leukemia L-1210; 18.0 mg/kg/day, i.p. D1): 6/6
ILS (leukemia L-1210; 18.0 mg/kg/day, i.p. D1~5): > 493%
Survivors (60 days) (leukemia L-1210; 18.0 mg/kg/day, i.p. D1~5): 4/6
ILS (leukemia L-1210; 18.0 mg/kg/day, p.o. D1~5): > 679%
Survivors (60 days) (leukemia L-1210; 18.0 mg/kg/day, p.o. D1~5): 6/6
ILS (leukemia L-1210; 25.0 mg/kg/day, i.p. D1): > 625%
Survivors (60 days) (leukemia L-1210; 25.0 mg/kg/day, i.p. D1): 6/6
ILS (leukemia L-1210; 25.0 mg/kg/day, i.p. D1~5): > 393%
Survivors (60 days) (leukemia L-1210; 25.0 mg/kg/day, i.p. D1~5): 3/6
ILS (leukemia L-1210; 25.0 mg/kg/day, p.o. D1~5): 233%
ILS (leukemia L-1210; 35.0 mg/kg/day, i.p. D1): > 632%
Survivors (60 days) (leukemia L-1210; 35.0 mg/kg/day, i.p. D1): 6/6
ILS (leukemia L-1210; 35.0 mg/kg/day, i.p. D1~5): > 157%
Survivors (60 days) (leukemia L-1210; 35.0 mg/kg/day, i.p. D1~5): 1/6
ILS (leukemia L-1210; 50.0 mg/kg/day, i.p. D1): > 388%
Survivors (60 days) (leukemia L-1210; 50.0 mg/kg/day, i.p. D1): 3/6

Source: US4156777A, “Process for producing glucopyranose-nitrosourea compounds and novel compounds included therein” (Tokyo Tanabe Company, Limited, priority 1977, dated 1979)
